Measurements: US20100254942A1, “HEPATITIS C ANTIVIRAL COMPOSITIONS AND METHODS” (BIOTRON LIMITED, priority 2007, published 2010)
“And” between values parts separate entries of the source, which are not always exact repeats. Equal values may be shown once. Read-outs that look alike come from different tables or passages of the source.

Assays:
[1] = test system: bovine viral diarrhea virus (BVDV) strain NADL; assay: BVDV CPE-inhibition assay in MDBK cells; format: cell-based
Method: The antiviral evaluation of selected BIT compounds against BVDV was outsourced to Southern Research Institute (SRI), Fredrick Md. USA. A simple cytoprotection format is used in which the antiviral efficacy of the compounds is assessed by their ability to reduce the cytopathic effect of BVDV infection in Madin-Darby bovine kidney cells (Buckwold et al., 2003)
(§1) A virus-induced cytopathogenic effects (CPE)-inhibition assay procedure was employed to evaluate compounds for antiviral activity against bovine viral diarrhea virus (BVDV) strain NADL, in Madin-Darby bovine kidney (MDBK) cells passaged in T-75 flasks (1, 2). Antiviral assays were designed to test six half-log concentrations of each compound in triplicate against the challenge virus. Cell controls (CC) containing medium alone, virus-infected cell controls (VC) containing medium and virus, drug cytotoxicity controls containing medium and each drug concentration, reagent controls containing culture medium only (no cells), and drug colorimetric controls containing drug and medium (no cells) are run simultaneously with the test samples. Human interferon-α 2b was used as a positive control compound. On the day preceding the assay, the cells were trypsinized, pelleted, counted and resuspended at 1×10^4/well in tissue culture medium in 96-well flat bottom tissue culture plates in a volume of 100 μl per well. One day following plating of cells, the wells were washed and the medium was replaced with complete medium (2% serum) containing various concentrations of test compound diluted in medium in a half-log series. A pre-titered aliquot of virus was removed from the freezer (−80° C.) just before each experiment. The virus was diluted into tissue culture medium such that the amount of virus added to each well would give complete cell killing at 6-7 days post-infection. The plates were incubated at 37° C. in a humidified atmosphere containing 5% CO2 until maximum CPE is observed in the untreated virus control cultures (˜day 7) Inhibition of CPE by the compound was determined using Cell Titer 96 (Promega). A colorimetric method for determining the number of viable cells was used. A computer program was utilized to calculate the percent of CPE reduction of the virus-infected wells and the percentage cell viability of uninfected drug control wells. […] A therapeutic (selectivity) index (TI50) for each active compound was determined by dividing the TC50 by the IC50.
(§2) Drug cytotoxicity was measured separately in uninfected cells. Eleven BIT compounds were tested in the first experiment in which the compounds were added to the cells just prior to infection and were maintained throughout the entire experiment. Two of them, BIT225 and BIT314 returned sub-micromolar IC50 values (see Table 2 below).

[2] = target: T1, HCV p7 ion channel protein (Hepatitis C virus genotype 1a, UniProt P27958); assay: Bacterial bioassay: growth of E. coli expressing HCV p7; format: cell-based; parameters: scale not given here; settings: cumulative averaged scores; result above zero indicates potential anti-viral activity
T1 construct: codons were optimised for expression of the p7 protein in E. coli; expressed in transfected cells; host or cells: E. coli carrying plasmid pPLp7 (pPL451 backbone, temperature-inducible)
Excerpt: The bacterial bioassay method used in the present example to test the anti-viral activity of the compounds against different viral targets was described in detail in PCT/2004/000866, incorporated in its entirety herein by reference. This assay is used in conjunction with the GBV-B and BVDV assays described below, to ensure that all active compounds are identified, some of which are active in one or the other of the assays, while some compounds may be active in both assays.
Briefly, the bacterial bio-assay for screening potential anti-HCV compounds is based on the HCV p7 ion channel protein. p7 is a small membrane protein encoded by HCV, which has a functional activity supporting viral growth and/or replication.
The p7-encoding synthetic cDNA fragment cDp7.coli, in which codons were optimised for expression of the p7 protein in E. coli, was cloned into the expression plasmid pPL451, creating the vector pPLp7, in which p7 expression is temperature inducible, as described in detail in PCT/2004/000866. Inhibition of the growth of E. coli cells expressing p7 at 37° C. was observed as an indicator of p7 ion channel function dissipating the normal Na+gradient maintained by the bacterial cells. Halos of growth around a particular compound application site indicate that the compound has inhibited expression of the p7 ion channel activity that prevents growth in the absence of the compound.
The positive controls were used in this assay to ensure that the assay was working rather than for comparison of relative activities of the compounds.

[3] = test system: Madin-Darby bovine kidney (MDBK) cells; assay: Drug cytotoxicity in uninfected MDBK cells; format: cell-based; settings: for TC50: uninfected MDBK cells
Excerpt: as §1, §2

GBV-B p13 ion channel = target: T2, GBV-B p13 ion channel (Hepatitis GB virus B, UniProt Q69422); settings: synthetic peptide of two C-terminal transmembrane helices of p13; Premkumar et al., 2006; cited from earlier work
T2 construct: a synthetic peptide corresponding to the two C-terminal transmembrane helices of p13 (which share the greatest homology to p7); host or cells: chemically synthesised peptide

[4] = Bovine viral diarrhea virus isolates and strains, MDBK, nucleoside analog tested individually against BVDV, read-out: EC50
[5] = BVDV in MDBK cells, compound added just prior to infection and maintained, N/A = not achieved, read-out: IC50
[6] = Bovine viral diarrhea virus isolates and strains, MDBK, Table 2a, read-out: BVDV IC50

T1 sequence (P27958 747-809): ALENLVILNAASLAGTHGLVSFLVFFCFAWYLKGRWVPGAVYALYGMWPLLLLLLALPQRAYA
T2 sequence (Q69422 670-732): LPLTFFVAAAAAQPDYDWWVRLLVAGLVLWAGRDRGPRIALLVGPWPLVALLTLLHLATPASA

Compound | Average Bacterial Assay Score HCV p7 [2] | IC50 [1, 6] [nM] | further results
C[C@@]1(O)[C@H](O)[C@@H](CO)O[C@H]1n1cnc2c(N)ncnc21 [2′-C-methyladenosine, reference compound] |  |  | EC50 [1, 4]: 2.16 µM
C[C@@]1(O)[C@H](O)[C@@H](CO)O[C@H]1n1ccc(N)nc1=O [2′-C-methylcytidine, reference compound] |  |  | EC50 [1, 4]: 2.75 µM
N=C(N)NC(=O)C=Cc1cccc(Br)c1 [BIT067, (3-Bromocinnamoyl)guanidine] | 2.00 |  | 
N=C(N)NC(=O)C=Cc1cc(Br)ccc1F [BIT124, 5-bromo-2-fluorocinnamoylguanidine] | 2.70 |  | TC59 [3]: 5.21 µM
N=C(N)NC(=O)/C=C/c1cccc(C(=O)c2ccccc2)c1 [BIT216, (3-benzoyl)cinnamoylguanidine] | 1.3 |  | 
N=C(N)NC(=O)/C=C/c1cccc2c1OCO2 [BIT217, 2,3-methylenedioxycinnamoyl guanidine] | 1.0 |  | 
Cc1cccc2cc(C(=O)NC(=N)N)ccc12 [BIT218, 5-methyl-2-napthoylguanidine] | 1.7 |  | 
N=C(N)NC(=O)/C=C/c1cccc2c1CCC2 [BIT222, 3(indan-4-yl)-propenoylguanidine] | 2.0 |  | 
COc1ccc2cc(C(=O)NC(=N)N)ccc2c1Br [BIT223, 5-bromo-6-methoxy-2-napthoylguanidine] | 0.5 |  | IC50 [1, 5]: 4380 nM; TC50 [3]: >30.0 µM
N=C(N)NC(=O)c1ccc2c(-c3ccsc3)cccc2c1 [BIT224, 5-thiophen-3-yl-2-naphthoylguanidine] | 1.10 |  | 
N=C(N)NC(=O)C=Cc1ccc(Cl)c(Cl)c1 [BIT300, 3,4-dichlorocinnamoyl guanidine] | 1.12 |  | TC59 [3]: 3.69 µM
COc1c(C(=O)NC(=N)N)ccc2ccccc12 [BIT301, (1-methoxy-2-napthoyl)guanidine] | 0.25 | > 20000 | 
COc1cc2ccccc2cc1C(=O)NC(=N)N [BIT302, (3-methoxy-2-napthoyl)guanidine] | 0.76 | 7210 | 
N=C(N)NC(=O)c1ccc2c(Br)cccc2c1 [BIT303, (5-bromo-2-napthoyl)guanidine] | 0.62 | 13600 | 
COc1cc(C(=O)NC(=N)N)c(OC)c2ccccc12 [BIT304, (1,4-dimethoxy--2-napthoyl)guanidine] | 0.60 | > 20000 | 
N=C(N)NC(=O)c1ccc2cc(-c3ccsc3)ccc2c1 [BIT305, (6-(3-thienyl)-2-napthoyl)guanidine] | 0.08 | > 20000 | 

Compound | Average Bacterial Assay Score HCV p7 [2] | IC50 [1, 6] [nM] | further results
Cc1ccc2cc(C(=O)NC(=N)N)ccc2c1 [BIT306, (6-methyl-2-napthoyl)guanidine] | 0.07 | 14500 | 
N=C(N)NC(=O)c1ccc2c(-c3ccccc3)cccc2c1 [BIT307, (5-phenyl-2-napthoyl)guanidine] | 0.46 | 1990 | 
N=C(N)NC(=O)c1ccc2c(-c3cccs3)cccc2c1 [BIT308, (5-(thien-2-yl)-2-napthoyl)guanidine] | 0.55 | 8730 | 
CC(C)Cn1cc(-c2cccc3cc(C(=O)NC(=N)N)ccc23)cn1 [BIT310, (5-(1-isobutyl-1H-pyrazol-4-yl)-2-napthoyl)guanidine] | 0.36 | > 20000 | 
N=C(N)NC(=O)c1ccc2c(-c3ccoc3)cccc2c1 [BIT311, (5-(3-furyl)-2-napthoyl)guanidine] | 0.81 | 2960 | 
N=C(N)NC(=O)c1ccc2c(C3CC3)cccc2c1 [BIT312, (5-cyclopropyl-2-napthoyl)guanidine] | 1.00 | 8630 | 
N=C(N)NC(=O)c1ccc2c(Cl)cccc2c1 [BIT313, (5-chloro-2-napthoyl)guanidine] | 1.30 | 9640 | 
CC(=O)O.Cn1cc(-c2ccc3cc(C(=O)NC(=N)N)ccc3c2)cn1 [BIT314, (6-(1-methylpryazol-4-yl)-2-napthoyl)guanidinium acetate] | 4.03 | 390 | IC50 [1, 5]: 210 nM; EC50 ([1]; Bovine viral diarrhea virus isolates and strains, MDBK, drug alone, average of experiments, read-out: average EC50): 0.3 µM; EC50 ([1]; Bovine viral diarrhea virus isolates and strains, MDBK, in the presence of 5 IU/ml IFNα plus 1.25 μg/ml ribavirin, read-out: EC50): 0.183 µM; EC50 ([1]; Bovine viral diarrhea virus isolates and strains, MDBK, in the presence of 40 IU/ml IFNα, read-out: EC50): ~0.06 µM; EC50 ([1]; drug alone, average of experiments, read-out: average EC50): 0.38 µM; EC50 ([1]; drug tested individually against BVDV, read-out: EC50): 0.21 µM and 0.39 µM and 0.54 µM; IC50 values (in words) ([1]; first experiment, Table 2): sub-micromolar; TC50 [3]: 11.6 µM
COc1ccc(-c2cccc3cc(C(=O)NC(=N)N)ccc23)c(OC)n1 [BIT315, (5-(2,6-dimethoxypryridin-3-yl)-2-napthoyl)guanidine] | 0.20 | > 20000 | 
N=C(N)NC(=O)c1ccc2c(-c3ccccc3Cl)cccc2c1 [BIT316, (5-(2-chlorophenyl)-2-napthoyl)guanidine] | 0.37 | > 20000 | 
CC(=O)Nc1ccc(-c2cccc3cc(C(=O)NC(=N)N)ccc23)cc1 [BIT317, (5-(4-(acetylamino)phenyl)-2-napthoyl)guanidine] | 0.06 | 6020 | 
CC(=O)Nc1cccc(-c2cccc3cc(C(=O)NC(=N)N)ccc23)c1 [BIT318, (5-(3-(acetylamino)phenyl)-2-napthoyl)guanidine] | 0.73 | > 20000 | 
CS(=O)(=O)Nc1ccc(-c2cccc3cc(C(=O)NC(=N)N)ccc23)cc1 [BIT319, (5-(4-((methylsulphonyl)amino)phenyl)-2-napthoyl)guanidine] | 0.10 | > 20000 | 
NC(N)=NC(=O)c1nc(Cl)c(N2CCCCCC2)nc1N [HMA] |  |  | effect on p13 ion channel (GBV-B p13 ion channel): does not inhibit
NC12CC3CC(CC(C3)C1)C2 [amantadine] |  |  | effect on p13 ion channel (GBV-B p13 ion channel): blocked
IFN-α |  |  | inhibition ([1]; 5 IU/ml IFNα alone): ~8%; IC50 ([1]; BVDV in MDBK cells, positive control): 20.6 IU/mL; EC50 ([1]; drug tested individually against BVDV): 21.7 IU/ml; TC59 [3]: >500 IU/mL
